Measured values taken from patent US8883449B2, “Single-chain insulin” (Novo Nordisk A/S, priority 2003, dated 2014).
Like-named read-outs stand apart in the source and are kept apart here. Bridges are numbered along the chain shown (N, C = ends). Where no end group is shown, it is not given here.

Biological target: human insulin receptor (Homo sapiens, UniProt P06213)
Format: binding
Method: Alternatively the insulin receptor binding was tested in a hIRBHK membrane assay as follows: • Binding of [^125I]-human insulin to membrane-associated recombinant human insulin receptor isoform A (hIR-A) • Reagents: • ^125I-Insulin: Novo Nordisk A/S, mono ^125I-(TyrA14) human insulin • Human Insulin: Novo Nordisk A/S, • Human serum albumin: Dade Behring, ORHA 194 C30, lot 455077 • Plastic ware: Packard OptiPlate™-96, #6,005,290 • Scintillant: Amersham Biosciences, WGA coated PVT microspheres, # RPNQ0001 • Cells: BHK tk^− ts13 cells expressing recombinant human insulin receptor isoform A (hIR12-14).
Extraction of membrane-associated insulin receptors: BHK cells from a ten-layer cell factory were harvested and homogenised in 25 ml of ice-cold buffer (25 mM HEPES pH 7.4, 2.5 mM CaCl2, 1 mM MgCl2, 250 mg/l bacitracin, 0.1 mM Pefablock). The homogenate was layered carefully on 41% sucrose cushions, centrifuged in the ultracentrifuge at 95,000×g for 75 minutes in a Beckman SW28 rotor at 4° C. The plasma membranes were collected from the top of the sucrose cushion, diluted 1:4 with buffer and centrifuged at 40,000×g for 45 min in a Beckman SW28 rotor. The pellets were suspended in buffer (25 mM HEPES pH 7.4, 2.5 mM CaCl2, 1 mM MgCl2, 250 mg/l bacitracin, 0.1 mM Pefablock) and stored at −80° C.
Radioligand binding to membrane-associated insulin receptors was performed in duplicate in 96-well OptiPlates. Membrane protein was incubated for 150 minutes at 25° C. with […] [^125I-Tyr^A14]-human insulin in a total volume of […] assay buffer (50 mM HEPES, 150 mM NaCl, 5 mM MgSO4, 0.01% Triton X-100, 0.1% HSA, Complete™ EDTA-free protease inhibitors) and increasing concentrations of human insulin or insulin analogues (typically between 0.01 and 300 nM). The assay was terminated by addition of 50 μl of a suspension of WGA-coated PVT microspheres (20 mg/ml). Following 5 minutes of slight agitation, the plate was centrifuged at 1500 RPM for 6 minutes, and bound radioactivity quantified by counting in a Packard TopCount NXT after a delay of 60 minutes. […]

[1] = acylated single-chain insulins of Examples 2-4

Sequence of human insulin receptor (P06213 28-746 isoform P06213-2 limits assumed): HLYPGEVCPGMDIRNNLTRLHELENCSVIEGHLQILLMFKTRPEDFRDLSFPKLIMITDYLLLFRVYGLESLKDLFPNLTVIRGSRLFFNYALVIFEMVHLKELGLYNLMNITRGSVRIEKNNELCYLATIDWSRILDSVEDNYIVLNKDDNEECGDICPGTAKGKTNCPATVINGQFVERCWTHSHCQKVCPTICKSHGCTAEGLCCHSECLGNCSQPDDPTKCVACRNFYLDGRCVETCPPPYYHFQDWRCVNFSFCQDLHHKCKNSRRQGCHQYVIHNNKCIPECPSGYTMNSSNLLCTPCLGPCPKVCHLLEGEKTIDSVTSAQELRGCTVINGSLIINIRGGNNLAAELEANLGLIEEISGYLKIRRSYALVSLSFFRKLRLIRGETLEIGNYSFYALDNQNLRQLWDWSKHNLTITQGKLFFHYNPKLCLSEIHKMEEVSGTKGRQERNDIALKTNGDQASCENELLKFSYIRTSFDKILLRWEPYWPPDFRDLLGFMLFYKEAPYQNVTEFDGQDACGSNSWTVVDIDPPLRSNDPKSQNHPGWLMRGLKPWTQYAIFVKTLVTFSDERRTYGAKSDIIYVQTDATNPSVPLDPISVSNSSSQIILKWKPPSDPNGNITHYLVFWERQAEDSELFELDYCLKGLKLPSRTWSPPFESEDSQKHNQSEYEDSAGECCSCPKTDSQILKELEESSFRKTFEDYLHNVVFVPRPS
Sequence of human insulin receptor (P06213 763-1382 partner limits assumed): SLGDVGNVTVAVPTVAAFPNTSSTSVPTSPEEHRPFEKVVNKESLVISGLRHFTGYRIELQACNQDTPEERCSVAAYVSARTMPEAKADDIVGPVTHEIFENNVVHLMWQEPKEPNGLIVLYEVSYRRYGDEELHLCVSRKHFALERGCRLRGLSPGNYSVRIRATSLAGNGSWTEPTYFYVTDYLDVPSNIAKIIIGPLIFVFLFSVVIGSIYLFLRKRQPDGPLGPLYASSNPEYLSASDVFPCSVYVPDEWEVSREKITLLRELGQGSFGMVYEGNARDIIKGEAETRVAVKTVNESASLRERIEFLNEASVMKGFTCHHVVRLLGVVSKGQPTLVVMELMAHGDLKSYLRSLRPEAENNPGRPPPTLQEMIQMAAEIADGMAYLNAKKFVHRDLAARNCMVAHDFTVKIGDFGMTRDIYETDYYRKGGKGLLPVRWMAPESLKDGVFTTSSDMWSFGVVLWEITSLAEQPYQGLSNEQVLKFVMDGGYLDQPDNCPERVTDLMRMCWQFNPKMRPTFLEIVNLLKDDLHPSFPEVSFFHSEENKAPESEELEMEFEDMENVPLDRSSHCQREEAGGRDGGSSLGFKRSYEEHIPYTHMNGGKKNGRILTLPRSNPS

| IC50 relative to human insulin in %. [%] | Molecule | IC50 relative to human insulin in %. [1] [%] |
| --- | --- | --- |
| 2 | CCCCCCCCCCCCCC(=O)NCCCC[C@@H]1NC(=O)CNC(=O)[C@H](CC(C)C)NC(=O)CNC(=O)[C@H]([C@@H](C)O)NC(=O)[C@H](CCCNC(=N)N)NC(=O)[C@@H]2CCCN2C(=O)[C@H]([C@@H](C)O)NC(=O)[C@H](Cc2ccc(O)cc2)NC(=O)[C@H](Cc2ccccc2)NC(=O)[C@H](Cc2ccccc2)NC(=O)CNC(=O)[C@H](CCCNC(=N)N)NC(=O)[C@H](CCC(=O)O)NC(=O)CNC(=O)[C@@H]2CSSC[C@@H](C(=O)NCC(=O)O)NC(=O)[C@H](Cc3ccc(O)cc3)NC(=O)[C@H](CCC(N)=O)NC(=O)[C@H](CCC(=O)O)NC(=O)[C@H](CC(C)C)NC(=O)[C@H](CCC(N)=O)NC(=O)[C@H](Cc3ccc(O)cc3)NC(=O)[C@H](CC(C)C)NC(=O)[C@H](CO)NC(=O)[C@@H]3CSSC[C@H](NC(=O)[C@H](CCC(N)=O)NC(=O)[C@H](CCC(=O)O)NC(=O)[C@H](C(C)C)NC(=O)[C@H]([C@@H](C)CC)NC(=O)CNC(=O)[C@H](CCC(N)=O)NC(=O)CNC1=O)C(=O)N[C@@H](CSSC[C@H](NC(=O)[C@H](CC(C)C)NC(=O)[C@H](Cc1c[nH]cn1)NC(=O)[C@H](CCC(N)=O)NC(=O)[C@H](CCC(N)=O)NC(=O)[C@@H](NC(=O)[C@@H](N)Cc1ccccc1)C(C)C)C(=O)NCC(=O)N[C@@H](CO)C(=O)N[C@@H](Cc1c[nH]cn1)C(=O)N[C@@H](CC(C)C)C(=O)N[C@@H](C(C)C)C(=O)N[C@@H](CCC(=O)O)C(=O)N[C@@H](C)C(=O)N[C@@H](CC(C)C)C(=O)N[C@@H](Cc1ccc(O)cc1)C(=O)N[C@@H](CC(C)C)C(=O)N[C@@H](C(C)C)C(=O)N2)C(=O)N[C@@H]([C@@H](C)O)C(=O)N[C@@H](CO)C(=O)N[C@@H]([C@@H](C)CC)C(=O)N3 [Example 2, B(1-29)-B3Q-B29R-TGLGK((eps)myristoyl)GQ-A(1-21)-A18Q-A21G Human insulin] |  |
|  | B(1-29)-B3Q-B29R-TGLGK((eps)hexadecandioyl-γ-L-Glu)GQ-A(1-21)-A 8Q-A21 G Human insulin [Example 4] | 0.7 |
|  | B(1-29)-B3Q-B29R-TGLGK((eps)octadecandioyl)GQ-A(1-21)-A18Q-A21G Human insulin (FVQQHLCGSHLVEALYLVCGERGFFYTPRTGLGK(octadecandioyl)GQGIVEQCCTSICSLYQLEQYCG; disulfide 19-56, 42-47, 7-43) [Example 3] | 0.1 |
